Data published in article PMC10573175 (International Journal of Molecular Sciences, 2023).

What was measured:
[1] = biological target: HSA (Homo sapiens, UniProt P02768); assay: Far-UV circular dichroism spectroscopy of HSA with ceftazidime; conditions: far-UV CD, dependent on drug concentration
Method: (§1) UV-visible studies were performed on a Perkin Elmer Lambda 45 spectrophotometer (Germany) within the range of 200 nm to 500 nm as required. Intrinsic fluorescence measurements were performed on a Hitachi F 7000 spectrofluorometer (Japan) equipped with the programmable temperature controller. The excitation and emission slit widths were adjusted to 5 nm with a PMT voltage of 500 V. Circular dichroism (CD) spectrophotometric recordings were obtained with a Jasco J-815 spectropolarimeter (Japan) using a quartz cuvette of […]. The studies were carried out in the 20 mM tris buffer of pH 7.4 and at 25 °C unless stated otherwise. Autodock 4.2 [36] was used to perform molecular docking and MD simulations were performed through GROMACS 2021.3 [37] with the utilization of the CHARMM force field for a production run of 100 ns. The detailed methodology is given in the Supplementary Materials.
Non-steroidal anti-inflammatory drug effect on the binding of p lasma […]
on Perkin-Elmer Lambda 45 Spectrophotometer equipped with autosampler and water-
bath with temperature controller. Quartz cuvettes of 1 cm path length were used for the
Fluorescence measurements were performed on Hitachi spectrofluorometer (Model […]
fluorescence spectra were collected at 25 °C with a cell of path length 1 cm. […]
and emission slits were set at 5 nm. Intrinsic fluorescence was measured by exciting […]

[2] = biological target: T1, human serum albumin (HSA) (Homo sapiens, UniProt P02768); assay: Competitive binding site assay with site markers warfarin, ibuprofen and hemin (fluorescence quenching); conditions: for KSV: 25 °C
Text: DS1 is located in subdomain IIA, while DS2 is located in subdomain IIIA. There are several molecules that have the specific affinities towards these binding sites; for instance, warfarin binds strongly at DS1 and ibuprofen binds at DS2 [12]. There is another binding site within HSA, which is also known as fatty acid binding site 1, located in subdomain IB, which has a precise affinity for hemin [12]. Therefore, these molecules could be considered as the specific site markers for these sites and can be used to see the competitive binding between the molecule under consideration. […] The corresponding quenching and binding plots are given in Figure 7A,B and the calculated values of quenching and binding constants are shown in Table 2. […] To obtain more understanding on the binding site, we performed computational studies using molecular docking and molecular dynamics simulations, which will be described in the next sub-sections.
as §1

[3] = biological target: T1, human serum albumin (HSA); assay: Intrinsic fluorescence quenching of HSA by ceftazidime (Stern–Volmer, modified Stern–Volmer, Van't Hoff analysis); format: binding; conditions: for KSV (Stern–Volmer quenching constant): 20 mM tris buffer pH 7.4, excitation 295 nm; for ΔG (free energy change of binding): Van't Hoff
Text: The intrinsic fluorescence of HSA is mainly contributed by a single tryptophan residue, which can be excited at 295 nm to give the maximum fluorescence emission at 340 nm. […] The corrected fluorescence data are used to further analyze the results given in the next section.
The fluorescence quenching is the result of either stable complex formation between fluorophore and the quencher or there is a collisional encounter between them. The first phenomenon is termed as static quenching, while the second one is known as dynamic quenching. […] The involvement of the quenching mechanism, either static or dynamic, can be understood with the help of temperature variation. Dynamic quenching increases in increasing the temperature while static quenching constant decreases in such a case.
The binding constant (Kb) and number of binding sites (n) can also be estimated using the modified Stern–Volmer equation as:(2) logF0−F/F=logKb+nlog[Q].
Van’t Hoff equations (given in Equations (S2) and (S3)) can be used to evaluate the thermodynamic parameters such as the free energy change (ΔG), enthalpy change (ΔH), and entropy change (ΔS) of a process using the values of physical parameters at equilibrium. Herein, we used the binding constant, Kb, at three different temperatures to fit into the Equation (S1) to obtain the values of ΔH from the slope and ΔS from the intercept of the plot of ln Kb vs. 1/T (Figure 5A), which are given in Table 1. The values of ΔH and ΔS were, further, used to calculate ΔG. From the evaluation of thermodynamic parameters, involvement of the major forces in the binding can be understood along with the feasibility of the interaction. According a to report published by Ross and Subramanian, hydrogen bonding interactions dominate when the values of ΔH and ΔS are negative, whereas positive values of these parameters can be observed in case of hydrophobic interactions.
as §1, with “Materials. […]” for “Materials.”

[4] = biological target: T1, human serum albumin (HSA); assay: Effect of paracetamol on HSA–ceftazidime binding (fluorescence quenching, Lineweaver–Burk analysis); conditions: for KSV: 25 °C
Method: as §1

[5] = Van't Hoff plot of ln Kb vs. 1/T, 25–45 °C

T1 sequence (P02768 25-609): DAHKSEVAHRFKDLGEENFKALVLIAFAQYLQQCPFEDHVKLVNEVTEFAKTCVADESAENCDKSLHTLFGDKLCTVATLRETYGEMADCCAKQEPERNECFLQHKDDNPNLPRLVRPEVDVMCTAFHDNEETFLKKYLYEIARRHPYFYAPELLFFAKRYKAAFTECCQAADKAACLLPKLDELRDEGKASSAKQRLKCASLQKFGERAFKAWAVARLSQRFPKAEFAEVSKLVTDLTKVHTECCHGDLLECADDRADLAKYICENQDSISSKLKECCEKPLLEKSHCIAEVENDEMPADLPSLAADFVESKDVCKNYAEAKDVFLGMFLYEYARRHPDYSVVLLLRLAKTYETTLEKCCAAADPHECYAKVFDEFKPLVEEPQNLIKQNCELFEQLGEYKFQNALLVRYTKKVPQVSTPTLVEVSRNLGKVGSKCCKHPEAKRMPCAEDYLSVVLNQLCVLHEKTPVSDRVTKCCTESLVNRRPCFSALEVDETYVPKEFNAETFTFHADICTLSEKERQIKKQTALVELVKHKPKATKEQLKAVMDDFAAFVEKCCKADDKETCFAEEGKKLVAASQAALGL
Chain of HSA (P02768 25-609): as above

**Q.** How did the “effect on secondary structure of HSA” value [1] turn out when CC(C)(O/N=C(\C(=O)N[C@@H]1C(=O)N2C(C(=O)[O-])=C(C[n+]3ccccc3)CS[C@H]12)c1csc(N)n1)C(=O)O [Ceftazidime] was run?
**A.** partial unfolding of the protein

**Q.** And the KSV ([2]; in the presence of hemin (site marker subdomain IB))?
**A.** 1.3 × 10^3 M^–1

**Q.** And the KSV ([2]; in the presence of ibuprofen (site marker DS2))?
**A.** 2.3 × 10^3 M^–1

**Q.** And the KSV ([2]; in the presence of warfarin (site marker DS1))?
**A.** 1.7 × 10^3 M^–1

**Q.** What about the “preferred binding site within HSA” value ([2]; site markers and docking) of the same compound?
**A.** subdomain IB

**Q.** And the “n (number of binding sites)” value ([3]; 25 °C)?
**A.** 0.96

**Q.** And the “KSV (Stern–Volmer quenching constant)” value ([3]; 25 °C)?
**A.** 2.3 × 10^3 M^–1

**Q.** And the “ΔG (free energy change of binding)” value ([3]; 25 °C)?
**A.** -4.4 kcal/mol

**Q.** And the “n (number of binding sites)” value ([3]; 35 °C)?
**A.** 1.01

**Q.** And the “KSV (Stern–Volmer quenching constant)” value ([3]; 35 °C)?
**A.** 2.6 × 10^3 M^–1

**Q.** And the “ΔG (free energy change of binding)” value ([3]; 35 °C)?
**A.** -4.95 kcal/mol

**Q.** And the “n (number of binding sites)” value ([3]; 45 °C)?
**A.** 1.09

**Q.** What about the “KSV (Stern–Volmer quenching constant)” value ([3]; 45 °C) of the same compound?
**A.** 3.2 × 10^3 M^–1

**Q.** What about the “ΔG (free energy change of binding)” value ([3]; 45 °C) of the same compound?
**A.** -5.5 kcal/mol

**Q.** And the quenching mechanism ([3]; KSV increased on increasing the temperature)?
**A.** dynamic quenching mechanism

**Q.** And the “ΔH (enthalpy change of binding)” value [3, 5]?
**A.** 11.8 kcal/mol

**Q.** And the “ΔS (entropy change of binding)” value [3, 5]?
**A.** 227.8 J mol^−1 K^−1

**Q.** And the KSV ([4]; in the presence of 50 µM paracetamol)?
**A.** 2.2 × 10^3 M^–1

**Q.** And the KSV ([4]; in the presence of 100 µM paracetamol)?
**A.** 1.8 × 10^3 M^–1

**Q.** What about the KSV ([4]; in the presence of 150 µM paracetamol) of the same compound?
**A.** 1.7 × 10^3 M^–1

**Q.** And the KSV ([4]; in the presence of 250 µM paracetamol)?
**A.** 1.6 × 10^3 M^–1

**Q.** And the KSV ([4]; in the presence of 500 µM paracetamol)?
**A.** 1.3 × 10^3 M^–1

**Q.** How did the “type of inhibition of HSA–ceftazidime binding” value ([4]; Lineweaver–Burk plots) turn out when CC(=O)Nc1ccc(O)cc1 [Paracetamol, paracetamol] was run?
**A.** non-competitive
